From US5843954A, “Camptothecin derivatives, preparations thereof and antitumor agents” (priority 1994, dated 1998)
Converted amounts (≈) assume the structure as drawn.

Assays:
[1] = Acute toxicity test by intraperitoneal administration; settings: mouse, in vivo, ip, ICR male mice, 1 week observation
Method: Acute toxicity test was conducted by intraperitoneal administration using a group of twenty ICR male mice (4 weeks old, body weight around 20 g).
LD50 value was calculated by the Richfield-Willcokson method from a lethal ratio observing the fate of mice during 1 week after administration of a test compound.

[2] = Antitumor activity for L1210 (life prolonging effect, mouse leukemia transplanted intraperitoneally); assay type: in vivo; settings: mouse, in vivo, ip; numerator of therapeutic index; i.p. total dose; read-out: Maximum tolerable dose
Method: (§1) 5×10^5 cells of mouse leukemia L1210 were transplanted intraperitoneally to a group of six female CDF1 mice (7 weeks old, body weight 17-19 g). The test compound was administered intraperitoneally on day 1, 5 and 9 and its life prolonging effect was observed.
(§2) In a case of the administration of a test compound as an acid addition salt the test compound was dissolved in water. The total administration amount was 1.56 mg/kg-400 mg/kg. The antitumor activity was expressed by the value (T/C%) wherein T denotes the mean survival days in the drug administered group and C denotes those in the non administered group. In case of equal to or more than 125% the drug is considered to be effective.

mouse leukemia L1210 = experiment: as above; assay type: in vivo; settings: for minimal effective dose: Mus musculus, L1210, ip, denominator of therapeutic index, i.p. total dose, read-out: Minimum effective dose; for 40-day survivors: at optimum dose, group of six female CDF1 mice; for Therapeutic Index (Maximum tolerable dose/Minimum effective dose): i.p., L1210, CDF1 mice
Method: as §1, §2

Water solubility = assay type: physicochemical

Compound	LD50 at 168 h [1] [mg/kg]	MTD [2] [mg/kg]	minimal effective dose (mouse leukemia L1210) [mg/kg]	40-day survivors (mouse leukemia L1210)	Therapeutic Index (Maximum tolerable dose/Minimum effective dose) (mouse leukemia L1210)	solubility (Water solubility) [mg/mL]
CCc1c2c(nc3cc(Cl)c(Cl)cc13)-c1cc([C@@](O)(CC)C(=O)NCCN(C)C)c(COC(=O)CCSC)c(=O)n1C2 [Compound C19]	94.8	3.13	< 1.56	0/6	> 2	24 (≈ 37.8 mM)
CCC(=O)OCc1c([C@@](O)(CC)C(=O)NCCN(C)C)cc2n(c1=O)Cc1c-2nc2cc(F)c(OC)cc2c1CC [Compound C20]	84.5	3.13	< 1.56	0/6	> 2	> 60
CCCC(=O)OCc1c([C@@](O)(CC)C(=O)NCCN(C)C)cc2n(c1=O)Cc1c-2nc2cc(F)c(OC)cc2c1CC [Compound C21]	124	3.13	< 1.56	0/6	> 2	> 63
CCC(=O)OCc1c([C@@](O)(CC)C(=O)NCCN(C)C)cc2n(c1=O)Cc1c-2nc2cc(F)c(C)cc2c1CC [Compound C23]	184	12.5	< 1.56	0/6	> 8	20 (≈ 36.2 mM)
CCCC(=O)OCc1c([C@@](O)(CC)C(=O)NCCN(C)C)cc2n(c1=O)Cc1c-2nc2cc(F)c(C)cc2c1CC [Compound C24]	203	25	1.56	1/6	> 16	42 (≈ 74.1 mM)
CCc1c2c(nc3cc(F)c(C)cc13)-c1cc([C@@](O)(CC)C(=O)NCCN(C)C)c(COC(=O)CCSC)c(=O)n1C2 [Compound C25]	154	12.5	< 1.56	1/6	> 8	> 63
CCc1c2c(nc3cc(F)c(C)cc13)-c1cc([C@@](O)(CC)C(=O)NCCN(C)C)c(COC(=O)c3ccc(OC)cc3)c(=O)n1C2 [Compound C26]	113	50	12.5	0/6	> 4	9 (≈ 14.3 mM)
CCC(=O)OCc1c([C@@](O)(CC)C(=O)NCCN(C)C)cc2n(c1=O)Cc1c-2nc2ccc(O)cc2c1CC [Compound C28]	341	200	12.5	0/6	16	> 56
CCCC(=O)OCc1c([C@@](O)(CC)C(=O)NCCN(C)C)cc2n(c1=O)Cc1c-2nc2ccc(O)cc2c1CC [Compound C30]	362	200	6.25	0/6	32	> 58
CCc1c2c(nc3ccc(O)cc13)-c1cc([C@@](O)(CC)C(=O)NCCN(C)C)c(COC(=O)CCSC)c(=O)n1C2 [Compound C32]	307	200	6.25	0/6	32	> 62
CCc1c2c(nc3ccc(O)cc13)-c1cc([C@@](O)(CC)C(=O)NCCN(C)C)c(COC(=O)c3ccc(F)cc3)c(=O)n1C2 [Compound C36]	477	200	12.5	0/6	16	17 (≈ 28.2 mM)
CCc1c2c(nc3ccc(O)cc13)-c1cc([C@@](O)(CC)C(=O)NCCN(C)C)c(COC(=O)c3cccc(F)c3)c(=O)n1C2 [Compound C38]	421	200	12.5	0/6	16	6 (≈ 9.96 mM)
